ChEMBL document CHEMBL1137572, “CYP2C9 structure-metabolism relationships: substrates, inhibitors, and metabolites” (J Med Chem, 2007)
pIC50: −log10 of the molar value.

What follows are molecules tested against Cytochrome P450 2C9 (Homo sapiens, UniProt P11712) (assay: Inhibition of recombinant CYP2C9 by fluorescence inhibition assay).
Type: ADME

Sequence of Cytochrome P450 2C9 (P11712 whole entry): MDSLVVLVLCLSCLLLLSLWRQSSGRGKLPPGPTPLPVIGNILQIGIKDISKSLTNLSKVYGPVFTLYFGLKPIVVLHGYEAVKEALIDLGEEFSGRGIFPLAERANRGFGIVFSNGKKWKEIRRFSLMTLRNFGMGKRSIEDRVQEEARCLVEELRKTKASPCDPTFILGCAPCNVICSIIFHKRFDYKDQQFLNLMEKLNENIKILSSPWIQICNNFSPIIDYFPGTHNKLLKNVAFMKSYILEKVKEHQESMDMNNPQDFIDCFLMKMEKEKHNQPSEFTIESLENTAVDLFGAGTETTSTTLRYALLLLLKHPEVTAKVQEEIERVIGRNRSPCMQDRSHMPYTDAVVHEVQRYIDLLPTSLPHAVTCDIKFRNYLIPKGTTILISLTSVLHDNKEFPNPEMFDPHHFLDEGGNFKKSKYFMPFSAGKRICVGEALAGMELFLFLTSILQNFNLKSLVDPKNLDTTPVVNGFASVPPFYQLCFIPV

Q: `CCOC(=O)c1ccc(-n2nc(C(F)(F)F)cc2-c2ccc(C)cc2)cc1` was tested. Which pIC50 did it give?
A: < 4.40

Q: `Cc1ccc(-c2cc(-c3ccccc3)nn2-c2ccc(S(N)(=O)=O)cc2)cc1` was tested. Which pIC50 did it give?
A: 4.80

Q: `Cc1ccc(-c2cc(C(F)(F)F)nn2-c2ccc(S(C)(=O)=O)cc2)cc1` was tested. Which pIC50 did it give?
A: 4.80

Q: `CSc1ccc(-n2nc(C(F)(F)F)cc2-c2ccc(C)cc2)cc1` was tested. Which pIC50 did it give?
A: < 4.40

Q: `Cc1ccc(-c2cc(C(=O)O)nn2-c2ccc(S(N)(=O)=O)cc2)cc1` was tested. Which pIC50 did it give?
A: < 4.40

Q: `CCOC(=O)c1ccc(-n2nc(C(F)(F)F)cc2-c2ccc(C(F)(F)F)cc2)cc1` was tested. Which pIC50 did it give?
A: < 4.40

Q: `Cc1ccc(-c2cc(C(F)(F)F)nn2-c2ccc(C)cc2)cc1` was tested. Which pIC50 did it give?
A: < 4.40

Q: `Cc1ccc(-c2cc(C(F)(F)F)nn2-c2ccc(S(N)(=O)=O)cc2)cc1` [CELECOXIB] was tested. Which pIC50 did it give?
A: 5.00

Q: `O=C(O)Cc1ccc(-n2nc(C(F)(F)F)cc2-c2ccc(C(F)(F)F)cc2)cc1` was tested. Which pIC50 did it give?
A: 4.60

Q: `Cc1ccc(-c2cc(C(F)(F)F)nn2-c2ccc(CC(=O)O)cc2)cc1` was tested. Which pIC50 did it give?
A: < 4.40

Q: `Cc1ccc(-c2cc(C(F)(F)F)nn2-c2ccc(C(=O)O)cc2)cc1` was tested. Which pIC50 did it give?
A: < 4.40

Q: With `Cc1ccc(-c2cc(C(F)(F)F)nn2-c2ccc([S+](C)[O-])cc2)cc1` (centres undefined) as the molecule, how does the pIC50 read?
A: 4.59

Q: With `NS(=O)(=O)c1ccc(-n2nc(C(F)(F)F)cc2-c2ccc(C(F)(F)F)cc2)cc1` as the molecule, how does the pIC50 read?
A: 4.77

Q: How did the pIC50 turn out when `O=C(O)c1ccc(-n2nc(C(F)(F)F)cc2-c2ccc(C(F)(F)F)cc2)cc1` was run?
A: < 4.40
